Results on 15 compounds are retold here after patent US11059832B2, “HPK1 inhibitors and methods of using same” (University Health Network, priority 2015, dated 2021).

Format in all cases: biochemical
The target of assay [1] is T1, FLT3 (Homo sapiens, UniProt P36888).
T1 construct: purchased Invitrogen PV3182
T1 sequence (P36888 27-993): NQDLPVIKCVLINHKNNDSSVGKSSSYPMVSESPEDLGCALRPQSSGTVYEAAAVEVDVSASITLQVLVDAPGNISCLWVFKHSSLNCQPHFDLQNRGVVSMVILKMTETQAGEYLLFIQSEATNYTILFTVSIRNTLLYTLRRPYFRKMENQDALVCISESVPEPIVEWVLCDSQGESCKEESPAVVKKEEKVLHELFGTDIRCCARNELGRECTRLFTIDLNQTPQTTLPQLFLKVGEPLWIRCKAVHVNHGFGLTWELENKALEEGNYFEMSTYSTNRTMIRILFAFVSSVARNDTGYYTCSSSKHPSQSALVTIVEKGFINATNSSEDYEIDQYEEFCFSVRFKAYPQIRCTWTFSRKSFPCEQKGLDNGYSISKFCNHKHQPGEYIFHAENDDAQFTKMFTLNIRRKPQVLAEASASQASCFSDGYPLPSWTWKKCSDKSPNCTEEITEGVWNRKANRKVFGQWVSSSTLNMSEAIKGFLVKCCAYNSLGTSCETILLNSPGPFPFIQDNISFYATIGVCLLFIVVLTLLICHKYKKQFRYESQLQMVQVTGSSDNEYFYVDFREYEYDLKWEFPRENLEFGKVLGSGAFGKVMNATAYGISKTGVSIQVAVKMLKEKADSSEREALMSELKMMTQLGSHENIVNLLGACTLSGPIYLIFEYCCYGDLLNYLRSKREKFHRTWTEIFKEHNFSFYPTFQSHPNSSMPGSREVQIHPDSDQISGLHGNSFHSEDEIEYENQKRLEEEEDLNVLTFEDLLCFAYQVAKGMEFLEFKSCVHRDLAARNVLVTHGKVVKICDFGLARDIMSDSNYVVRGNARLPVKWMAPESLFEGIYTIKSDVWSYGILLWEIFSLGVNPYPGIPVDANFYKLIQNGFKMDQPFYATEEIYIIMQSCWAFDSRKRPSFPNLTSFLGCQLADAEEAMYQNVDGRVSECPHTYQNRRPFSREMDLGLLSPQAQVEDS
The experiment in a line: FLT3 inhibition, FRET based Z'-LYTE Kinase Assay. Conditions: 1 nM FLT3, 940 μM ATP; read-out: IC50 Range Flt3. The protocol: (§1) FLT3 and LCK compound inhibition were determined using FRET based Z′-LYTE Kinase Assay Kit with Tyrosine 2 peptide as the substrate (Invitrogen cat #PV3191). […] The % inhibition values were determined according to the manufacturer's directions and IC50 values were obtained using a non-linear 4 point logistic curve fit (XLfit4, IDBS).

Assay [2] deals with T2, LCK (Homo sapiens, UniProt P06239).
T2 construct: purchased Invitrogen P3043
The experiment in a line: LCK inhibition, FRET based Z'-LYTE Kinase Assay. Conditions: 25 nM LCK, 180 μM ATP; read-out: IC50 Range Lck. The protocol:
as §1

In assay [3] the target is T3, human HPK1 (MAP4K1) (Homo sapiens, UniProt Q92918).
T3 construct: human HPK1 (aa 1-346); purchased Invitrogen PV6355
T3 sequence (Q92918 1-346): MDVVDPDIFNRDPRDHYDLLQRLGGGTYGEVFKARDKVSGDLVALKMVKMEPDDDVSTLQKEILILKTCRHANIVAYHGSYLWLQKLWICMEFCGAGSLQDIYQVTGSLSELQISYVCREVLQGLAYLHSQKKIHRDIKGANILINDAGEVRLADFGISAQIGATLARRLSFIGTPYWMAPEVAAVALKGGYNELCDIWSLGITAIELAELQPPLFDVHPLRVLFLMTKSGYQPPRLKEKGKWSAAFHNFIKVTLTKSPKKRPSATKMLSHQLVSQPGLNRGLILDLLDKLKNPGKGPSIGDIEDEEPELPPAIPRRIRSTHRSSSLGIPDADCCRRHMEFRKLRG
The assay is described as follows: HPK1 inhibition assay (indirect ELISA). Conditions: GST-HPK1 0.6 nM, 12 μM ATP; read-out: IC50 Range HPK1. On the procedure: Active HPK1 (MAP4K1) was purchased as an N-terminal GST fusion of human HPK1 (aa 1-346) from Invitrogen (cat #PV6355). HPK1 activity was measured using an indirect ELISA detection system. GST-HPK1 (0.6 nM) was incubated in the presence of 12 μM ATP (Sigma cat #A7699), 5 mM MOPS (pH 7.2), 2.5 mM β-glycerol-phosphate, 5 mM MgCl2, 0.4 mM EDTA, 1 mM EGTA, 0.05 mM DTT, in a 96 well microtitre plate pre-coated with 0.5 μg/well bovine myelin basic protein (MBP) (Millipore, cat #13-110). The reaction was allowed to proceed for 30 min, followed by 5 washes of the plate with Wash Buffer (phosphate buffered saline supplemented with 0.2% Tween 20), and incubation for 30 min with a 1:3000 dilution of anti-phospho-threonine rabbit polyclonal antibody (Cell Signaling cat #9381). The plate was washed 5 times with wash buffer, incubated for 30 min in the presence of goat anti-rabbit horse radish peroxidase conjugate (BioRad cat #1721019, 1:3000 concentration), washed an additional 5 times with wash buffer, and incubated in the presence of TMB substrate (Sigma cat #T0440). The colorimetric reaction was allowed to continue for 5 min, followed by addition of stop solution (0.5 N H2SO4), and quantified by detection at 450 nm with a monochromatic plate reader (Molecular Devices M5).
Compound inhibition was determined at either a fixed concentration (10 μM) or at a variable inhibitor concentration (typically 50 μM to 0.1 μM in a 10 point dose response titration). Compounds were pre-incubated in the presence of enzyme for 15 min prior to addition of ATP and the activity remaining quantified using the above described activity assay. The % inhibition of a compound was determined using the following formula; % inhibition=100×(1−(experimental value−background value)/(high activity control−background value)). The IC50 value was determined using a non-linear 4 point logistic curve fit (XLfit4, IDBS) with the formula; (A+(B/(1+((x/C)^D)))), where A=background value, B=range, C=inflection point, D=curve fit parameter.

T2 sequence (P06239 whole entry, species assumed): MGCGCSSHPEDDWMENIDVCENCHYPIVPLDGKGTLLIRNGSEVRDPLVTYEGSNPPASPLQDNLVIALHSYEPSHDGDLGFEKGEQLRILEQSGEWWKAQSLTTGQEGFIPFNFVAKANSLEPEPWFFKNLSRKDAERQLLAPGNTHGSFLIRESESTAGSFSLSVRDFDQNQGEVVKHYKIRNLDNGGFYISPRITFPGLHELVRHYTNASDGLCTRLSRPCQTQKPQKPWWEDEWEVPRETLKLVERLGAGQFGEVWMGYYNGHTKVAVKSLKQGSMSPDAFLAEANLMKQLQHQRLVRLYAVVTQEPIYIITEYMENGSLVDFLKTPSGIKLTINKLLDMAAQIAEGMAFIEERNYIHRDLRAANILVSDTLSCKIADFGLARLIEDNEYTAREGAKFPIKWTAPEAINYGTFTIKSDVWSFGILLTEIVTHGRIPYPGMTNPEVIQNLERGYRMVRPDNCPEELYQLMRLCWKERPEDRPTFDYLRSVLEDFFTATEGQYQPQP

Regarding `Nc1c(-c2nc3ccc(N4CCOCC4)cc3[nH]2)c(=O)[nH]c2ccsc12` [Example A31, 7-amino-6-(6-morpholino-1H-benzo[d]imidazol-2-yl)thieno[3,2-b]pyridin-5(4H)-one], the IC50 in assay [1] is at most 50 nM; in assay [2], 50 to 500 nM; in assay [3], at most 50 nM.

As to `Cc1csc2[nH]c(=O)c(-c3nc4ccc(N5CCN(C)CC5)cc4[nH]3)c(N)c12` [Example A2, 4-amino-3-methyl-5-(6-(4-methylpiperazin-1-yl)-1H-benzo[d]imidazol-2-yl) thieno[2,3-b]pyridin-6(7H)-one], the IC50 in assay [1] was at most 50 nM; in assay [2], 50 to 500 nM; in assay [3], at most 50 nM.

In the case of `C[C@@H]1CN(c2ccc3nc(-c4c(N)c5sccc5[nH]c4=O)[nH]c3c2)C[C@H](C)N1C` [Example A33, 7-amino-6-(6-(3r,5s)-rel-3,4,5-trimethylpiperazin-1-yl)-1H-benzo[d]imidazol-2-yl)thieno[3,2-b]pyridin-5(4H)-one], the IC50 in assay [1] was at most 50 nM; in assay [2], 50 to 500 nM; in assay [3], at most 50 nM.

Take `C[C@@H]1CN(c2ccc3nc(-c4c(NC5CCOCC5)c5sccc5[nH]c4=O)[nH]c3c2)C[C@H](C)N1C` [Example A48, 7-((tetrahydro-2H-pyran-4-yl)amino)-6-(6-(3r,5s)-rel-3,4,5-trimethylpiperazin-1-yl)-1H-benzo[d]imidazol-2-yl)thieno[3,2-b]pyridin-5(4H)-one]: the IC50 in assay [1], in assay [2] and in assay [3] was at most 50 nM each time.

For `CN1CCN(c2ccc3nc(-c4c(NCc5ccccn5)c5sccc5[nH]c4=O)[nH]c3c2)CC1` [Example A53, 6-(6-(4-methylpiperazin-1-yl)-1H-benzo[d]imidazol-2-yl)-7-((pyridin-2-ylmethyl)amino)-thieno[3,2-b]pyridin-5(4H)-one], the IC50 in assay [1], in assay [2] and in assay [3] was at most 50 nM in each case.

With `CN1CCN(c2ccc3nc(-c4c(N[C@H]5CCC[C@@H]5O)c5ccsc5[nH]c4=O)[nH]c3c2)CC1` [Example A66, 4-(((1S,2S)-2-hydroxycyclopentyl)amino)-5-(6-(4-methylpiperazin-1-yl)-1H-benzo[d]imidazol-2-yl)thieno[2,3-b]pyridin-6(7H)-one], the IC50 in assay [1], in assay [2] and in assay [3] was at most 50 nM each time.

For `CN1CCN(c2ccc3nc(-c4c(NCc5cccnc5)c5sccc5[nH]c4=O)[nH]c3c2)CC1` [Example A52, 6-(6-(4-methylpiperazin-1-yl)-1H-benzo[d]imidazol-2-yl)-7-((pyridin-3-ylmethyl)amino)thieno[3,2-b]pyridin-5(4H)-one], the IC50 in assay [1], in assay [2] and in assay [3] was at most 50 nM throughout.

With `CN1CCN(c2ccc3nc(-c4c(N[C@@H]5CC[C@H](O)C5)c5ccsc5[nH]c4=O)[nH]c3c2)CC1` (relative stereo) [Example A13, 4-(((1R*,3S*)-3-hydroxycyclopentyl)amino)-5-(6-(4-methylpiperazin-1-yl)-1H-benzo[d]imidazol-2-yl)thieno[2,3-b]pyridin-6(7H)-one], the IC50 in assay [1] is at most 50 nM; in assay [2], 50 to 500 nM; in assay [3], at most 50 nM.

Take `CN1CCN(c2ccc3nc(-c4c(N[C@@H]5CCOC5)c5cscc5[nH]c4=O)[nH]c3c2)CC1` [Example A71, (R)-3-(6-(4-methylpiperazin-1-yl)-1H-benzo[d]imidazol-2-yl)-4-((tetrahydrofuran-3-yl)amino)thieno[3,4-b]pyridin-2(1H)-one]: the IC50 in assay [1], in assay [2] and in assay [3] was at most 50 nM each time.

`CN1CCN(c2ccc3nc(-c4c(NC5CCNCC5)c5sccc5[nH]c4=O)[nH]c3c2)CC1` [Example A39, 6-(6-(4-methylpiperazin-1-yl)-1H-benzo[d]imidazol-2-yl)-7-(piperidin-4-ylamino)thieno[3,2-b]pyridin-5(4H)-one]: the IC50 in assay [1], in assay [2] and in assay [3] was at most 50 nM in each case.

In the case of `CN1CCN(c2ccc3nc(-c4c(NCc5ccncc5)c5sccc5[nH]c4=O)[nH]c3c2)CC1` [Example A22, 6-(6-(4-methylpiperazin-1-yl)-1H-benzo[d]imidazol-2-yl)-7-((pyridin-4-ylmethyl)amino)thieno[3,2-b]pyridin-5(4H)-one], the IC50 in assay [1] is at most 50 nM; in assay [2] it was 50 to 500 nM; in assay [3], at most 50 nM.

`CN1CCN(c2ccc3nc(-c4c(N[C@H]5CCC[C@@H]5O)c5sccc5[nH]c4=O)[nH]c3c2)CC1` [Example A42, 7-(((1S,2S)-2-hydroxycyclopentyl)amino)-6-(6-(4-methylpiperazin-1-yl)-1H-benzo[d]imidazol-2-yl)thieno[3,2-b]pyridin-5(4H)-one]: the IC50 in assay [1], in assay [2] and in assay [3] was at most 50 nM in each case.

As for `CN1CCN(c2ccc3nc(-c4c(N[C@H]5C[C@H](O)C5)c5ccsc5[nH]c4=O)[nH]c3c2)CC1` [Example A8, 4-(((1r,3r)-3-hydroxycyclobutyl)amino)-5-(6-(4-methylpiperazin-1-yl)-1H-benzo[d]imidazol-2-yl)thieno[2,3-b]pyridin-6(7H)-one], the figures for the IC50 in assay [1], in assay [2] and in assay [3] were at most 50 nM, 50 to 500 nM and at most 50 nM, respectively.

For `CN1CCN(c2ccc3nc(-c4c(NC5CCNCC5(F)F)c5ccsc5[nH]c4=O)[nH]c3c2)CC1` (stereo not drawn) [Example A15, 4-((3,3-difluoropiperidin-4-yl)amino)-5-(6-(4-methylpiperazin-1-yl)-1H-benzo[d]imidazol-2-yl)thieno[2,3-b]pyridin-6(7H)-one], the IC50 in assay [1], in assay [2] and in assay [3] was at most 50 nM in each case.

For the compound `CN1CCN(c2ccc3nc(-c4c(N[C@@H]5CCCC[C@@H]5O)c5sccc5[nH]c4=O)[nH]c3c2)CC1` [Example A46, 7-(((1R,2S)-2-hydroxycyclohexyl)amino)-6-(6-(4-methylpiperazin-1-yl)-1H-benzo[d]imidazol-2-yl)thieno[3,2-b]pyridin-5(4H)-one], the figures for the IC50 in assay [1], in assay [2] and in assay [3] were at most 50 nM, 50 to 500 nM and at most 50 nM, respectively.

Broadly, the IC50 is the concentration at which inhibition is half-maximal.
